Measurements as given in patent US20250090510A1, “eIF4G1-eIF1 INHIBITORS AND USE THEREOF” (YEDA RESEARCH AND DEVELOPMENT CO. LTD., priority 2022, published 2025).

How the values were obtained:
HEK293T cells = experiment: TCP-seq (translation complex profiling) of 48S footprints; assay type: cell-based, human; settings: 5 μM, one hour
Excerpt: FIGS. 9A-H: Inhibition of eIF1-eIF4G1 leads to 48S instability and scanning defect (9A) Polysome profiles of HEK293T cells treated with DMSO or i14G1-12 after crosslinking with formaldehyde, lysis and Rnase I digestion. The grey layer represents the fractions corresponding to the 40S ribosome used for the TCP-seq library preparation. (9B) Heatmap representing the log 2 mean of the relative number of reads mapping to the individual tRNAs in i14G1-12 over DMSO (n=3). The number of reads was normalized to the codon frequency in the human transcriptome. (9C) Volcano plot showing log 2 fold change (FC) of the abundance of each tRNAs comparing i14G1-12 over DMSO with FDR <0.05 and a log 2 FC threshold of 1. (9D) Histograms showing the relative number of reads mapping to mRNA in DMSO vs. i14G1-12. (9E) Metagene plots of normalized ribosome footprints (RPFs) counts on leader region. Numbers indicate the slope of the regression lines. (9F) Volcano plot showing log 2 fold change of the differential initiation analysis in i14G1-12 over DMSO. […] (9G) Bar chart of the relative number of reads mapping to each mRNA feature in DMSO and i14G-12.
FIGS. 10A-J: Definition of leaky scanning and its regulation by specific mRNA features and eIF1-eIF4G1. (10A) Metagene plots of normalized ribosome footprints (RPFs) counts on CDS region. (10B) Scatter plot representing the leaky scanning score (LS) of transcripts in i14G1-12 versus DMSO. Transcripts with a significant LS (FDR <0.05) in DMSO and i14G1-12 are highlighted. […] (10D) Boxplots of the leaky scanning score in DMSO and in i14G1-12. […] (10F) Plot of the mean GC content in a 20 nt window around the start codon of leaky and non-leaky transcripts in DMSO and i14G1-12. (10G) Boxplot representing the log 5′ UTR length of leaky and non-leaky transcripts in DMSO and i14G1-12.
HEK293T cells were grown to 90% confluence at 37° C. in a humidified incubator supplemented with 5% CO2. Cells were treated with DMSO or 5 μM i14G1-12 for 1 hour. After treatment, cells were directly removed from the incubator and treated with 0.15% formaldehyde for 10 min on ice with slow shaking. The reaction was stopped by adding 37.5 mM glycine for 5 minutes. Media was aspirated and the plates were washed with cold PBS. Cells were lysed with fresh lysis buffer (100 mM KCl, 20 mM Tris-HCl pH 8, 1.5 mM MgCl2, 1.5% (v/v) NP-40, 2 mM DTT) supplemented with protease inhibitor for 20 min in a cold room with slow agitation. Lysates were clarified by centrifugation at 20,000 g. RNA amount was quantified by nanodrop. 10% of the lysate was kept and snap freeze for total RNA extraction. Digestion was performed by the addition of 0.0075 U Rnase I per μg of RNA to the lysate for 30 min at room temperature. Digestion was stopped by adding a Super RNase inhibitor (ThermoFischer). Lysates were loaded onto a 5-45% sucrose gradient (100 mM KCl, 20 mM HEPES pH 7, 5 mM MgCl2, 2 mM DTT) and centrifuged at 39000 rpm for two hours and forty-five minutes in an SW41 rotor at 4° C. Gradients were analyzed through a UV lamp (254 nm) and an Absorbance detector while being fractionated in 250 μL fractions using a Foxy Junior Fraction Collector (Isco).
RNA from the undigested extract and the sucrose gradient fractions corresponding to the 40S were extracted by addition of 1 mL or one volume of TRIzol respectively. Samples were heated at 65° C. for 15 minutes and vortexed every five minutes. Extraction was continued by addition of chloroform and alcohol precipitation of the aqueous phase. RNA-seq libraries were prepared with the TruSeq stranded RNA Library Prep (Illumina). TCP-seq libraries were prepared as described herein by selecting footprints reads with a length ranging from 16 nt to 85 nt. Libraries were sequenced at the iGE3 Genomic Platform (UNIGE) on a Hiseq 4000. […]

human blood cells = experiment: Effect on host blood cells in the parasitemia assay; settings: i14G1-10 20 uM, i14G1-12 10 uM; 1 hour
Procedure: Parasitemia assay. The NF54 strain of the Plasmodium falciparum was used for the Survival test. Parasites were grown in RPMI medium pH 7.4, 25 mg/ml HEPES, 50 μg/ml hypoxanthine, 2 mg/ml sodium bicarbonate, 20 μg/ml gentamycin, and 0.5% (w/v) Albumax II (Invitrogen). Pooled donor red blood cells, provided by the Israeli blood bank, at 4% hematocrit, and incubated at 37° C. in a gas mixture of 1% 02, 5% CO2 in N2 were used.
Parasitaemia levels were measured 24 hours later.

| Compound | iMet tRNA abundance in 48S fractions (HEK293T cells; relative to DMSO) | number of reads mapping to mRNAs (HEK293T cells; relative to DMSO) | number of leaky genes (LS >3) (HEK293T cells; DMSO n=637) | number of non-leaky genes (LS<−3) (HEK293T cells; DMSO n=1223) | number of downregulated differentially scanned genes (HEK293T cells; log 2 FC threshold 1, FDR 0.05) | number of upregulated differentially scanned genes (HEK293T cells; log 2 FC threshold 1, FDR 0.05) | effect on human blood cells (human blood cells) |
| --- | --- | --- | --- | --- | --- | --- | --- |
| Cn1ccnc1S/C(=C/C=C(C#N)C#N)c1ccc(Cl)cc1 [i14G1-12] | most downregulated tRNA | significantly decreased | 1266 genes | 325 genes | 476 genes | 10 genes | – |
| O=C(/C=C/Sc1ccc(C(F)(F)F)cn1)c1ccccc1 [i14G1-10] | – | – | – | – | – | – | not adversely affected |
